In US9242977B2, “Trk-inhibiting compound” (ONO PHARMACEUTICAL CO., LTD., priority 2012, dated 2016):

Columns and labels:
Abl = Abl (Homo sapiens (Human), UniProt P00519); test: Enzyme inhibition activity test for kinases other than Trk (selectivity test): Abl; format: biochemical; conditions: test concentration 3 μM; read-out: Inhibition Rate (%) Abl
Description: (§1) A test substance (present compound or comparative compound) was dissolved in dimethylsulfoxide and further diluted with dimethylsulfoxide to prepare a solution having a concentration of 100 times the test concentration of 3 μM. The solution was further diluted to 25-fold with an assay buffer (20 mM HEPES, 0.01% Triton X-100, 2 mM DTT, pH 7.5) to obtain a test substance solution. In a similar manner a positive control substance solution was prepared with a positive control substance.
(§2) A 4-times concentration solution (5 μL) of the test substance prepared with the assay buffer, 5 μL of a 4-times concentration solution of substrate/ATP/metal (Mg) and 10 μL of a 2-times concentration solution of kinase were mixed in a well of a polypropylene 384-well plate and allowed to react at room temperature for 1 hour. The reaction was terminated by adding 60 μL of a Termination Buffer (QuickScout Screening Assist MSA; Carna Biosciences). The substrate peptide and the phosphorylated peptide in the reaction solution were separated and quantified. The kinase reaction was assessed from the product ratio (P/(P+S)) calculated from the height (S) of the peak of the substrate peptide and the height (P) of the peak of the phosphorylated peptide. Other kinases used in the kinase selectivity experiments were, for example, Abl, c-Met, b-Raf, c-Kit and KDR. The following Table 2 indicates substrates, substrate concentrations, ATP concentrations and positive control substances used in respective kinase enzyme inhibition activity tests.
(§3) The inhibition rate was calculated from the average signal intensity of the test wells containing respective test substances provided that the average signal intensity of control wells each containing all reaction components was 0% inhibition and the average signal intensity of background wells (without addition of the enzyme) was 100% inhibition.

c-Met = c-Met (Homo sapiens (Human), UniProt P08581); test: Enzyme inhibition activity test for kinases other than Trk (selectivity test): c-Met; format: biochemical; conditions: test concentration 3 μM; read-out: Inhibition Rate (%) c-Met
Description: as §1, §2, §3

c-Kit = c-Kit (Homo sapiens (Human), UniProt P10721); test: Enzyme inhibition activity test for kinases other than Trk (selectivity test): c-Kit; format: biochemical; conditions: test concentration 3 μM; read-out: Inhibition Rate (%) c-Kit
c-Kit, sequence (P10721 26-976): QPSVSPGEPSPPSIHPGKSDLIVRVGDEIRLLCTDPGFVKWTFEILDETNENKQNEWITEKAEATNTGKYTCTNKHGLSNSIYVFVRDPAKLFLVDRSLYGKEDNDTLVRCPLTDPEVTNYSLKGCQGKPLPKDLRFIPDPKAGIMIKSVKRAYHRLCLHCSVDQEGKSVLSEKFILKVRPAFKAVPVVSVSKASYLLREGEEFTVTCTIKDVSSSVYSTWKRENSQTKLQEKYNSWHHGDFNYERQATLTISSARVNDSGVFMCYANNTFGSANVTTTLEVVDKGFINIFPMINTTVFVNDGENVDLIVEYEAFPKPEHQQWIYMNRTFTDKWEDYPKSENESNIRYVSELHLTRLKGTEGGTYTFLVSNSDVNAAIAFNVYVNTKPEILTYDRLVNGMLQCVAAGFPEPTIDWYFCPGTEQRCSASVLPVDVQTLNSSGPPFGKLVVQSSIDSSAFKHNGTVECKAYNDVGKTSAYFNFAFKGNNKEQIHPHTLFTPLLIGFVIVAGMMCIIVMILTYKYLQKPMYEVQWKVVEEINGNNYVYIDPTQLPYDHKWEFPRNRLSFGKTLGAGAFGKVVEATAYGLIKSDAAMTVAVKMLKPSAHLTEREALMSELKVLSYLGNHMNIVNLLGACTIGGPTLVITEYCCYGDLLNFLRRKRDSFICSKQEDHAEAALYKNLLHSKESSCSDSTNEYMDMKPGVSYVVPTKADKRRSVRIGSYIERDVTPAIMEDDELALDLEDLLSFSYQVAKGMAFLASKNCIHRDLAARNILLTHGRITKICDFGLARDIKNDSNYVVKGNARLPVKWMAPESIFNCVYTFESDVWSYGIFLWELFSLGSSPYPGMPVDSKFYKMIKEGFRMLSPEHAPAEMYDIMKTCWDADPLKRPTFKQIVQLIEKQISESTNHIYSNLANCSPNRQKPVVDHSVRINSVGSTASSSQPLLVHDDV
Description: as §1, §2, §3

[1] = system: NGF-induced vascular hyper permeability; test: Suppression of rat NGF-induced vascular hyper permeability (in vivo test, Evans Blue); conditions: oral, 12 hours after administration, read-out: Rates of Suppression for Vascular Hyper Permeability (%)
Description: TrkA-inhibiting activity of the present compound was evaluated in vivo. The present compound dissolved in a medium was orally administered (adminstered volume: 5 mL/kg) to male CD(SD)IGS rats (7- to 9-week old, Charles River laboratories Japan, Inc.) shaved on the back. A medium was orally administered (adminstered volume: 5 mL/kg) to the control and normal groups. After 6 or 12 hours of administration, 3 μg/mL of a NGF (Mouse 2.5s, Natural, Invitrogen) solution prepared in 0.1% BSA (Sigma-Aldrich)-containing saline was intracutaneously administered (dose; 50 μL/site) at 3 sites on the back of animals under halothane anesthesia. For the normal group, 0.1% BSA-containing saline was intracutaneously administered (dose; 50 μL/site) at 3 sites on the back. Immediately after intracutaneous administration, 1% Evans Blue (Tokyo Chemical Industry Co., Ltd.) was administered intravenously from tail (adminstered volume: 3 mL/kg). After 10 minutes of administration, the animals were sacrificed by bleeding due to incision of the abdominal aorta. The sites of intracutaneous administration on the back (3 sites) were excised and the skin samples were respectively transferred to the wells in a 48-well plate (Asahi Glass Co., Ltd.). Formamide (0.8 mL/well) was added to the plate and the plate was sealed and incubated overnight at 60° C. The formamide extraction solution (200 μL) was transferred to a 96-well plate and the absorbance (wavelength: 620 nm) of Evans Blue extracted in formamide was measured on an absorbance microplate reader (SpectraMAX 190, Molecular Devices Japan, K.K.). Standard samples of Evans Blue dissolved in formamide (0, 0.78, 1.56, 3.13, 6.25, 12.5, 25 and 50 μg/mL) were measured at the same time for the absorbance (wavelength: 620 nm) to generate a calibration curve. Based on the calibration curve and the absorbances of samples, the concentrations of Evans Blue in the sample was calculated. The concentrations of Evans Blue for three skin samples collected from one aminal were averaged to obtain the vale for the animal. The rate of suppression for rat NGF-induced vascular hyper permeability of the present compound was calculated according to the following Equation 4: Suppression rate (%)=(1−(AX−AN)/(AC−AN)}×100 Equation 4
wherein AX: the concentration of Evans Blue of the test compound (an average value of 3 samples from one animal);
AN: the concentration of Evans Blue of the normal group (an average value of 3 samples from one animal);
AC: the concentration of Evans Blue of the control group (an average value of 3 samples from one animal).

b-Raf = b-Raf (Homo sapiens (Human), UniProt P15056); test: Enzyme inhibition activity test for kinases other than Trk (selectivity test): b-Raf; format: biochemical; conditions: test concentration 3 μM; read-out: Inhibition Rate (%) b-Raf
b-Raf, sequence (P15056 whole entry): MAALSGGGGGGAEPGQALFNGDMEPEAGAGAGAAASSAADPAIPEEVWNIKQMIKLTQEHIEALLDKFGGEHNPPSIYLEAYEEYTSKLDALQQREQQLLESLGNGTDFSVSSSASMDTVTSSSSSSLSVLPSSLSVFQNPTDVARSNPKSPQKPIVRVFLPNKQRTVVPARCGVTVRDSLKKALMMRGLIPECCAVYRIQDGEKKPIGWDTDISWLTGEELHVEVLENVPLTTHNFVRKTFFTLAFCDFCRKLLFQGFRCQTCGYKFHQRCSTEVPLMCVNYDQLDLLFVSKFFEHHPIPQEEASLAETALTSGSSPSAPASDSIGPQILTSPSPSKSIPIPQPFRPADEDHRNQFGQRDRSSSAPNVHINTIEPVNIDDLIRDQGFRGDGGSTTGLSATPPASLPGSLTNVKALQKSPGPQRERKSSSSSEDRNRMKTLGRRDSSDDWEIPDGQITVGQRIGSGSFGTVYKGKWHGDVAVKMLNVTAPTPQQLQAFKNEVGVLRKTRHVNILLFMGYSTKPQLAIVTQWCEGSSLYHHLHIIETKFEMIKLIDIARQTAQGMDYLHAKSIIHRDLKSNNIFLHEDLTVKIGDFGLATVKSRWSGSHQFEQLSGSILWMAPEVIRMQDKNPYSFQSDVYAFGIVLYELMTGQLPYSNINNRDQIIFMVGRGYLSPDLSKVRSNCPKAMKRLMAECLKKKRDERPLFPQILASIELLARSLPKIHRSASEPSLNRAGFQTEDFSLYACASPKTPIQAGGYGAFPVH
Description: as §1, §2, §3

KDR = KDR (Homo sapiens (Human), UniProt P35968); test: Enzyme inhibition activity test for kinases other than Trk (selectivity test): KDR; format: biochemical; conditions: test concentration 3 μM; read-out: Inhibition Rate (%) KDR
KDR, sequence (P35968 20-1356): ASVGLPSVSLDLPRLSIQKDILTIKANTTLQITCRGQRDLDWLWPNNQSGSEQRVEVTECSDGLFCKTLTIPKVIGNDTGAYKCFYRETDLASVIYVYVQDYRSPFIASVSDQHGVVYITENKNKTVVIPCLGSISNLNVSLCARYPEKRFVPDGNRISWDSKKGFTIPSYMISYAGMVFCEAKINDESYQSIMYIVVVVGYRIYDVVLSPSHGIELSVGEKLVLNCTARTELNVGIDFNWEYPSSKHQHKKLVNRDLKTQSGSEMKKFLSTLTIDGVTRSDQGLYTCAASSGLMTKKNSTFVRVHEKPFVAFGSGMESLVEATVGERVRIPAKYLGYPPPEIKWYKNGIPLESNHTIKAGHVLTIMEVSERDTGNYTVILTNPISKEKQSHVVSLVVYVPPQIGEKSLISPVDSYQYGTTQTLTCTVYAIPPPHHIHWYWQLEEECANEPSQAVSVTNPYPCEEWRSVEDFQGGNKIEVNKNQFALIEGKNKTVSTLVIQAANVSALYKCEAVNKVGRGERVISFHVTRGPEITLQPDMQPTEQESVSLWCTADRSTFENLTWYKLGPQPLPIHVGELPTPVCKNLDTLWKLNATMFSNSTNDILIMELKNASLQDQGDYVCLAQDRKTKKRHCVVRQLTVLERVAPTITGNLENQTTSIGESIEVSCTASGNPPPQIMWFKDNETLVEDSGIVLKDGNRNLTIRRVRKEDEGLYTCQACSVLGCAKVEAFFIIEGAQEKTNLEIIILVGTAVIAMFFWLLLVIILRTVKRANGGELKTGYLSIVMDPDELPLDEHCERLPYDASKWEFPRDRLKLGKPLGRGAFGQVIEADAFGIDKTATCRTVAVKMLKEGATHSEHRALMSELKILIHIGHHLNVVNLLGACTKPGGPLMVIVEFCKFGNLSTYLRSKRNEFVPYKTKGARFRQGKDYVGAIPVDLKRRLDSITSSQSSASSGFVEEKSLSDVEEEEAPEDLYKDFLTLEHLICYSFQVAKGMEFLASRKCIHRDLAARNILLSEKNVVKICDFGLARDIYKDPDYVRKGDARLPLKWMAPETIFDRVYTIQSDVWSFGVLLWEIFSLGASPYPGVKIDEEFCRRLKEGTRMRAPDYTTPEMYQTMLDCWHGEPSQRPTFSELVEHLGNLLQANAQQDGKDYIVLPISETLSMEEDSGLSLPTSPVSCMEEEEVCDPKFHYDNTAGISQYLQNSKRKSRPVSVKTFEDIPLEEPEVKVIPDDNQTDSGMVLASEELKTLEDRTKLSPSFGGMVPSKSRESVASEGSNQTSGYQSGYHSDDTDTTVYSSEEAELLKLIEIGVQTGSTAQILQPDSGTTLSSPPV
Description: as §1, §2, §3

Abl, sequence (P00519 whole entry): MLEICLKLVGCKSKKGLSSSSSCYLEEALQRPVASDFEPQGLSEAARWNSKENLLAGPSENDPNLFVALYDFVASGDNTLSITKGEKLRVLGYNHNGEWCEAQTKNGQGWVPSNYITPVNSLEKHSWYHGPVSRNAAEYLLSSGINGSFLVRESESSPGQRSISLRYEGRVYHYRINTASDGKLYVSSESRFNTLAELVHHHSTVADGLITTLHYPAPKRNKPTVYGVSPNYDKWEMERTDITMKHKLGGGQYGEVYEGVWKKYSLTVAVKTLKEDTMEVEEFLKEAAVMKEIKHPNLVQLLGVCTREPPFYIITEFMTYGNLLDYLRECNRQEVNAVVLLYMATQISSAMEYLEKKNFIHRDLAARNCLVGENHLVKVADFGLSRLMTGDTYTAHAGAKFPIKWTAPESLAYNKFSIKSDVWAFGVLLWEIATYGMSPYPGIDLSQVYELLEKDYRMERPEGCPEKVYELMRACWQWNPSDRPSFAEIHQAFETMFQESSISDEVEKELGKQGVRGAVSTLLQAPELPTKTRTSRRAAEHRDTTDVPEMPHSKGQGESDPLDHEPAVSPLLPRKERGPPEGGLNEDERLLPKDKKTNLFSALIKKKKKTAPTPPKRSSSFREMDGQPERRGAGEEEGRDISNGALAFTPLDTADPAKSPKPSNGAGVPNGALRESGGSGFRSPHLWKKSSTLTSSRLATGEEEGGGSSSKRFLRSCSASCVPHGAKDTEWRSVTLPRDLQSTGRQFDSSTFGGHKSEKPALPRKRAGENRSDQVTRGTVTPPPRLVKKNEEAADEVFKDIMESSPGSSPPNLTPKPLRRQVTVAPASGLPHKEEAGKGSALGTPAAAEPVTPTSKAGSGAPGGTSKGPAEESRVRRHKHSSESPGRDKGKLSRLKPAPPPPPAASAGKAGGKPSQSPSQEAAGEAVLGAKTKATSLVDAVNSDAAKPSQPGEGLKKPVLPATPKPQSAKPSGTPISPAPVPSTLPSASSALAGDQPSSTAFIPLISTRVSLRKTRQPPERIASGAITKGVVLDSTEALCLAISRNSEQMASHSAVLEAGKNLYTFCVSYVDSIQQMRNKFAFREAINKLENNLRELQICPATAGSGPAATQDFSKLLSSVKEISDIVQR

## O=C(Nc1cnc(Oc2ccc(-c3cnc(N4CCCC4=O)s3)cc2)nc1)Nc1cc(C(F)(F)F)ccc1-c1cccnc1 [Example 84-3, 1-(2-{4-[2-(2-oxo-1-pyrrolidinyl)-1,3-thiazol-5-yl]phenoxy}-5-pyrimidinyl)-3-[2-(3-pyridinyl)-5-(trifluoromethyl)phenyl]urea]
Abl
  inhibition at 3 µM: 5.6%
c-Met
  inhibition at 3 µM: 11%
c-Kit
  inhibition at 3 µM: 28%
[1]
  inhibition in vivo at 1 mg/kg: 94%
b-Raf
  inhibition at 3 µM: 36%
KDR
  inhibition at 3 µM: 5.2%
